Consider 1 molecule from US5663175A, “Prodrugs of herpes TK inhibitors” (Merck & Co. Inc., priority 1994, dated 1997).

For this experiment, the target named is herpes thymidine kinase (Human herpesvirus 1, UniProt P0DTH5). Put plainly: Assay for inhibition of herpes thymidine kinase. The experiment is classed as biochemical. As to the method: The assay mixture contains in a final volume of 110 microliters the following: 50 mM Tris-HCl, pH 7.5; 5 mM MgCl2; 5 mM ATP; 2 mM dithiothreitol (DTT); 2.5 mM KF; 0.25 mg/ml bovine serum albumin (BSA); […] thymidine labeled with either ^14 C or ^3 H; the compound being tested as inhibitor; and the viral thymidine kinase. The amount of enzyme, incubation time and temperature are adjusted so that no more than 20% of the substrate is converted to product in a reaction without inhibitor. At the end of the incubation period, 100 microliters of the assay mixture are spotted on a 25 mm disk of DEAE paper. The disks are washed three times with ethanol to remove unreacted thymidine and the amount of thymidine monophosphate produced is determined by scintillation counting of the disks. The results (in IC50) are calculated to give the concentration of inhibitor resulting in 50% inhibition of enzyme. The IC50 of L-58,340 is about 100 nM.

The structures appear in SMILES notation.

Sequence of herpes thymidine kinase (P0DTH5 whole entry): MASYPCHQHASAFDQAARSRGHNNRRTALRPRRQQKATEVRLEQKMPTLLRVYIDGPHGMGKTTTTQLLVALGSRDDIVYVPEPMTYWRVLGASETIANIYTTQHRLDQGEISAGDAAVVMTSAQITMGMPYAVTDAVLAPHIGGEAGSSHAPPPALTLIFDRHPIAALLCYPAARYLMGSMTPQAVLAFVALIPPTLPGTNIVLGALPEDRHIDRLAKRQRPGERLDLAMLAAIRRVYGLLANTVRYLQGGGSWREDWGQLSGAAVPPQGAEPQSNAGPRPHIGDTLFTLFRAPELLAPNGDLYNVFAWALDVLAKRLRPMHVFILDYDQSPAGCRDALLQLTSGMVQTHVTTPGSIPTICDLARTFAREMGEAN

Take `Nc1nc2c(ncn2C[C@H]2CCCC[C@H]2CO)c(=O)[nH]1` [L-758,340, 9-{[1(R)-hydroxymethyl-2(S)-cyclohexyl]methyl}guanine]: under “2 mM labeled thymidine, 5 mM ATP, pH 7.5, read-out: IC50 (concentration of inhibitor resulting in 50% inhibition of enzyme)”, the IC50 was roughly 100 nM. Under “compared with its enantiomer”, the “activity as an inhibitor of herpes thymidine kinase relative to its enantiomer” value is given as “substantially more active”. The “inhibition of herpes thymidine kinase (in words)” value (first principal finding) was “potent inhibitor”.
